Data from PubChem BioAssay AID1949 (Southern Research Institute, 2009).
≈ marks a conversion by molar mass, not a printed value. Results filed as inconclusive are left out. Calls of active or inactive are those of the source. How the calls were made is not given here.

Tested on: M. tuberculosis H37Rv growth inhibition
Experiment: Confirmatory growth inhibition assay against Mycobacterium tuberculosis H37Rv, potency (AID 1949);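 further: bacteria grown 7 days with compound before Alamar blue readout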

SMILES | IC50
Cc1ccc(-c2csc3ncn(C(C)C(=O)OC4CCCCC4)c(=O)c23)cc1C (centres undefined) | 1.52 µg/mL (≈ 3.7 µM)
O=C(NCCc1ccc(Cl)cc1)C12CC3CC(CC(C3)C1)C2 | 13.7 µg/mL (≈ 43 µM)
COc1cc(Br)cc2cc(C(=O)Nc3cc(C(F)(F)F)ccc3Cl)c(=O)oc12 | > 50 µg/mL (inactive)
COC(=O)COc1ccc(CSCC(=O)Nc2ccc3ccccc3c2)cc1 | 0.44 µg/mL (≈ 1.11 µM)
O=C(NC1CCCCC1)N1CCN(Cc2ccc3c(c2)OCO3)CC1 | 0.39 µg/mL (≈ 1.13 µM)
N#CCCN(Cc1ccccc1)C(=S)NC(=O)c1ccccc1 | 2.51 µg/mL (≈ 7.76 µM)
N#Cc1ccc(NC(=O)Nc2ccc(Cl)cc2)cc1 | 0.51 µg/mL (≈ 1.88 µM)
CCCCn1c(NCc2ccc(N(CC)CC)cc2)nc2ccccc21 | 11.2 µg/mL (≈ 32 µM)
CCn1c(/C=C/c2ccc([N+](=O)[O-])o2)nc2ccc(I)cc2c1=O | 2.04 µg/mL (≈ 4.67 µM)
CCCCN1C(=O)C(=O)c2cc(Br)ccc21 | 9.17 µg/mL (≈ 32.5 µM)
CCC(OC(C)=O)c1ccc(OC(C)=O)c(OC)c1 (centres undefined) | 1.43 µg/mL (≈ 5.37 µM)
O=C(COc1ccc(Cl)cc1)Nc1ccc(N2CCN(C(=O)c3ccco3)CC2)c(Cl)c1 | 1.67 µg/mL (≈ 3.52 µM)
Cn1c2c(c(=O)n(C)c1=O)C(C(F)(F)F)(C(F)(F)F)N=C(c1ccc(Cl)cc1)N2 | 46.1 µg/mL (≈ 105 µM)
Cc1cccc(NC(=S)NCCN2CCN(c3ccc(F)c(Cl)c3)CC2)c1C | 2.79 µg/mL (≈ 6.63 µM)
Brc1ccc2ncnc(Nc3ccc(N4CCCC4)cc3)c2c1 | < 0.1 µg/mL
O=[N+]([O-])c1cccc(NC(=S)Nc2cc(C(F)(F)F)ccc2F)c1 | 19 µg/mL (≈ 52.9 µM)
O=C(CC(O)(C(F)(F)F)C(F)(F)F)Nc1ccc(Cl)cc1Cl | 5.7 µg/mL (≈ 15.4 µM)
CCOC(=O)CSc1n[nH]c(-c2ccc(Cl)cc2)n1 | 2.99 µg/mL (≈ 10 µM)
CCOc1ccc(NC(=O)C(C)Oc2ccc(C)c(C)c2)cc1 (centres undefined) | 4.04 µg/mL (≈ 12.9 µM)
CCOC(=O)COc1ccc(S(=O)(=O)Nc2cc(C)cc(C)c2)cc1 | 4.03 µg/mL (≈ 11.1 µM)
Cc1ccc(C(=O)N2CCN(c3ccc(NC(=O)COc4ccccc4Cl)cc3)CC2)cc1 | 6.08 µg/mL (≈ 13.1 µM)

SMILES | IC50
OC(CN1CCCCCC1)CN1c2ccccc2Sc2ccccc21 (centres undefined) | 9.1 µg/mL (≈ 25.7 µM)
CCCNC(=S)NC(=O)c1ccc(C(C)(C)C)cc1 | 17 µg/mL (≈ 61 µM)
CC(C)(C)c1ccc(C(=O)NC(=S)N2CCCC2)cc1 | 1.35 µg/mL (≈ 4.65 µM)
CC1=NN(C(=S)Cc2ccccc2)C(C)(O)C1 (centres undefined) | 2.79 µg/mL (≈ 11.2 µM)
O=Cc1c(Nc2ccccc2)nc2ccccn2c1=O | 6.7 µg/mL (≈ 25.3 µM)
CCCOc1ccccc1-c1nc(SCC(=O)OCC)n[nH]1 | 1.86 µg/mL (≈ 5.79 µM)
C=CCn1c(-c2cccs2)nc2ccccc21 | 1.86 µg/mL (≈ 7.74 µM)
CCN(CC)c1ccc(NC(=O)C(C)Oc2cccc(Cl)c2)cc1 (centres undefined) | 6.4 µg/mL (≈ 18.5 µM)
Cc1ccc(Cc2ccc(C(=O)Nc3ccc(C)c(C)c3)o2)cc1 | 0.18 µg/mL (≈ 0.564 µM)
CN1CCN(c2ccc(NC(=O)c3cccc(OCc4ccccc4)c3)cc2)CC1 | 21.4 µg/mL (≈ 53.2 µM)
O=C1C=C(c2ccccc2)C(=O)c2ccccc21 | 2.68 µg/mL (≈ 11.4 µM)
Clc1ccc(OCc2ccccc2Cl)c(CNCc2ccccc2)c1 | 5.09 µg/mL (≈ 13.7 µM)
CC(CCc1ccccc1)Nc1cc(N2CCNCC2)ccc1[N+](=O)[O-] (centres undefined) | > 50 µg/mL (inactive)
O=C(NC12CC3CC(CC(C3)C1)C2)N1CCN(c2cccc(C(F)(F)F)c2)CC1 | 0.96 µg/mL (≈ 2.36 µM)
Cc1ccc(NC(=O)NC23CC4(C)CC(C)(CC(C)(C4)C2)C3)cc1 | > 50 µg/mL (inactive)
COc1ccc(C2=CC(=O)c3ccccc3C2=O)cc1 | 3.53 µg/mL (≈ 13.4 µM)
COC(=O)c1ccc(COC(=O)c2ccccc2Cl)cc1 | 1.69 µg/mL (≈ 5.55 µM)
O=[N+]([O-])c1ccc(O)c(-c2nc3ccccc3s2)c1 | > 50 µg/mL (inactive)
Cn1c2c(c(=O)n(C)c1=O)C(C(F)(F)F)(C(F)(F)F)N=C(c1cccc([N+](=O)[O-])c1)N2 | > 50 µg/mL (inactive)
CC1C(c2ccc(Cl)cc2)NC(c2ccc(Cl)cc2)C(C)C1(O)c1ccc(F)cc1 (centres undefined) | > 50 µg/mL (inactive)
O=C(CSc1ccccc1)c1ccc([N+](=O)[O-])cc1 | 9.78 µg/mL (≈ 35.8 µM)

SMILES | IC50
O=C(CSc1ccc(Br)cc1)Nc1ccccc1F | 1.6 µg/mL (≈ 4.7 µM)
Cc1cc(C(C)(C)C)ccc1OCCOCCn1ccnc1 | 2.93 µg/mL (≈ 9.69 µM)
CCOC(=O)/C=C/C(=O)Nc1sc2c(c1C(=O)OC)CCC2 | 0.57 µg/mL (≈ 1.76 µM)
COc1ccc(-c2csc(Nc3ccc(C)cn3)n2)cc1 | 7.18 µg/mL (≈ 24.1 µM)
COC(=O)Cc1c(C)c2ccc(OCC(=O)c3ccc(Cl)s3)cc2oc1=O | 2.49 µg/mL (≈ 6.12 µM)
Fc1cc(Br)cc2c1NC(c1cccnc1)C1CC=CC21 (centres undefined) | > 50 µg/mL (inactive)
C/C=C/c1ccc(OCCCOc2cccc3ccc(C)nc23)c(OC)c1 | 16.8 µg/mL (≈ 46.3 µM)
Cc1cccc(Nc2nc(NCc3ccco3)c3ccccc3n2)c1 | 1.86 µg/mL (≈ 5.63 µM)
O=[N+]([O-])c1c(Sc2ncnc3ccccc23)ccc2nsnc12 | 22.2 µg/mL (≈ 65.1 µM)
O=[N+]([O-])c1ncn(Cc2ccc(F)cc2Cl)n1 | 6.92 µg/mL (≈ 27 µM)
CCCc1ccc(OCC(=O)Nc2ccc(Cl)cc2Cl)cc1 | 2.86 µg/mL (≈ 8.46 µM)
CSc1ncnc2c1ncn2CC(=O)Nc1ccc(C)c(C)c1 | < 0.1 µg/mL
CCCc1ccc(OC(=O)c2ccc(OC)c(OC)c2)cc1 | 2.37 µg/mL (≈ 7.89 µM)
COc1ccc(C(=O)NC(=S)NNC(=O)c2ccc(OC)c(OC)c2)cc1Br | < 0.1 µg/mL
CCOC(=O)c1c(NC(=O)CNC(C)CC)sc2c1CCCC2 (centres undefined) | 17.4 µg/mL (≈ 51.4 µM)
O=C(Nc1cccc(CCc2ccccn2)c1)NC1CCCCC1 | 38.7 µg/mL (≈ 120 µM)
CCOC(=O)c1ccc(NC(=O)CSc2nnc(-c3ccco3)c(-c3ccco3)n2)cc1 | 19.7 µg/mL (≈ 43.6 µM)
O=[N+]([O-])c1cccc(NC(=S)Nc2ccc(Cl)c(Cl)c2)c1 | 0.3 µg/mL (≈ 0.877 µM)
Cn1nnc(NC(=O)COc2ccc(C3CCCCC3)cc2)n1 | 2.85 µg/mL (≈ 9.04 µM)
COc1cccc2c1OC(c1ccccc1)C([N+](=O)[O-])=C2 (centres undefined) | 0.7 µg/mL (≈ 2.47 µM)
O=[N+]([O-])/C=C/c1ccc(-c2ccccc2C(F)(F)F)o1 | 4.61 µg/mL (≈ 16.3 µM)

SMILES | IC50
CC(NC(=O)c1ccc(Br)cc1)c1ccc2c(c1)OCCO2 (centres undefined) | 5.81 µg/mL (≈ 16 µM)
Cc1cc(C)cc(-c2nc(-c3cccnc3)no2)c1 | 47.7 µg/mL (≈ 190 µM)
Cc1cccc2sc(NC(=O)c3ccc(C(C)(C)C)cc3)nc12 | 1.39 µg/mL (≈ 4.28 µM)
O=[N+]([O-])/C=C/c1cccn1-c1ccc(Cl)cc1 | 9.66 µg/mL (≈ 38.8 µM)
Nc1ccccc1NCCOc1ccccc1 | 1.01 µg/mL (≈ 4.42 µM)
Cc1cc(OC(=O)C2CC2)c2c3c(c(=O)oc2c1)CCCC3 | 1.44 µg/mL (≈ 4.83 µM)
Cc1ccc2nc(-c3ccncc3)cc(C(=O)Nc3ccc(C(=O)N4CCCC4)cc3)c2c1 | 8.89 µg/mL (≈ 20.4 µM)
CC(C)OC(=O)COc1cc(O)c2c(=O)cc(-c3ccccc3)oc2c1 | 19.6 µg/mL (≈ 55.2 µM)
O=c1c2ccccc2nc(CSc2ncnc3ccccc23)n1-c1ccc(Cl)c(Cl)c1 | > 50 µg/mL (inactive)
C/C(=N/Nc1nc(C)c(C)s1)c1ccc(Br)cc1 | 0.59 µg/mL (≈ 1.82 µM)
O=[N+]([O-])c1c(Nc2ccccc2)[nH]c2ccccc12 | 9.27 µg/mL (≈ 36.6 µM)
COc1cc(C(=O)Oc2ccc(Cl)c3cccnc23)cc(OC)c1OC | 11.3 µg/mL (≈ 30.2 µM)
COc1ccc(OCC(=O)N=Nc2c(O)[nH]c3c(Br)cc(C)cc23)c(Br)c1 | 16.7 µg/mL (≈ 33.6 µM)
O=C(CC1Sc2ccc(Cl)cc2NC1=O)Nc1ccc([N+](=O)[O-])cc1 (centres undefined) | 2.53 µg/mL (≈ 6.7 µM)
CCC(C)Oc1c(Cl)cc(/C=C\[N+](=O)[O-])cc1OC (centres undefined) | > 50 µg/mL (inactive)
Cc1ccc(-c2nc(NC(=O)C34CC5CC(CC(C5)C3)C4)sc2C)cc1 | > 50 µg/mL (inactive)
Cc1ccc(Cl)cc1N1CCN(CC(O)COc2ccc(C(=O)c3ccccc3)cc2)CC1 (centres undefined) | 2.94 µg/mL (≈ 6.32 µM)
O=Cc1ccc(Sc2nnc(-c3ccccc3)o2)o1 | 3.39 µg/mL (≈ 12.5 µM)
COc1ccc(C(=O)/C=C/Nc2cc(Cl)ccc2O)cc1OC | 4.6 µg/mL (≈ 13.8 µM)
CC(C)CC(=O)NC(c1ccc(Cl)cc1Cl)c1c(O)ccc2ccccc12 (centres undefined) | 1.72 µg/mL (≈ 4.28 µM)
Cc1cc(Oc2nc([N+](=O)[O-])nn2C)ccc1Cl | 5.88 µg/mL (≈ 21.9 µM)
